The values that follow come from ChEMBL document CHEMBL1649150, “P-glycoprotein-mediated transport of moxifloxacin in a Calu-3 lung epithelial cell model” (Antimicrob Agents Chemother, 2009).

The structures appear in SMILES notation.

For data set [1], the system named is P-glycoprotein. Nature of the data set: P-glycoprotein-mediated transport in human Calu3 cells expressing P-glycoprotein assessed as maximum apparent permeability from apical to basolateral side at 50 uM in presence of in presence of 10 uM of p-glycoprotein and MRP transport inducer rifampin. It is filed as ADME, cell-based, Calu-3.
For data set [2], the system named is P-glycoprotein. The experiment in a line: P-glycoprotein-mediated transport in human Calu3 cells expressing P-glycoprotein assessed as maximum apparent permeability from basolateral to apical side. It is filed as ADME, cell-based, Calu-3.
The nature of data set [3]: Apparent passive permeability across human Calu3 cells at < 10 ug/ml. It is filed as ADME, cell-based, Calu-3.
Data set [4] deals with P-glycoprotein. The experiment in a line: P-glycoprotein-mediated transport in human Calu3 cells expressing P-glycoprotein assessed as maximum apparent permeability from basolateral to apical side at 50 uM in presence of in presence of 10 uM of p-glycoprotein and MRP transport inducer rifampin. It is filed as ADME, cell-based, Calu-3.
For data set [5], the system named is P-glycoprotein. The experiment in a line: P-glycoprotein-mediated transport in human Calu3 cells expressing P-glycoprotein assessed as maximum apparent permeability from basolateral to apical side at 50 uM in presence of in presence of 25 uM of p-glycoprotein and MRP transport inducer rifampin. Type of data set: ADME, cell-based, Calu-3.
Data set [6] in a line: P-glycoprotein-mediated transport in human Calu3 cells assessed as efflux ratio of permeability from […] side at 50 uM. It is filed as ADME, cell-based. The following applies: calu-3, 50 µM.
A short description of data set [7]: (§1) P-glycoprotein-mediated transport in human Calu3 cells expressing P-glycoprotein assessed as maximum apparent permeability from apical to basolateral side at 50 uM. It is filed as ADME, cell-based, Calu-3. Particulars: calu-3, 50 µM, TDE = time-dependent effect.
The test system of data set [8] is P-glycoprotein. Described as §1. It is filed as ADME, cell-based, Calu-3.
In data set [9] the test system is P-glycoprotein. The experiment in a line: P-glycoprotein-mediated transport in human Calu3 cells expressing P-glycoprotein assessed as minimum apparent permeability from basolateral to apical side. It is filed as ADME, cell-based, Calu-3.
A short description of data set [10]: (§2) P-glycoprotein-mediated transport in human Calu3 cells expressing P-glycoprotein assessed as maximum apparent permeability from basolateral to apical side at 50 uM. It is filed as ADME, cell-based, Calu-3. The following applies: calu-3, 50 µM, TDE = time-dependent effect.
The test system of data set [11] is P-glycoprotein. The description is as §2. It is filed as ADME, cell-based, Calu-3.
Data set [12] has as its system P-glycoprotein. The experiment in a line: Activity at P-glycoprotein in human Calu3 cells. It is filed as ADME, cell-based, Calu-3.
Data set [13] concerns P-glycoprotein. Nature of the data set: P-glycoprotein-mediated transport in human Calu3 cells expressing P-glycoprotein assessed as maximum apparent permeability from apical to basolateral side at 50 uM in presence of in presence of 25 uM of p-glycoprotein and MRP transport inducer rifampin. Type of data set: ADME, cell-based, Calu-3.
Data set [14] is described as follows: Apparent passive permeability across human Calu3 cells at 350 ug/ml. It is filed as ADME, cell-based, Calu-3.
Data set [15] in a line: Cmax in healthy human at 400 […]. It is filed as ADME, organism-based. Particulars: in vivo.

Regarding `COc1c(N2C[C@@H]3CCCN[C@@H]3C2)c(F)cc2c(=O)c(C(=O)O)cn(C3CC3)c12` [MOXIFLOXACIN], the apparent permeability from apical to basolateral (Papp A→B) at 50 µM in the data set on P-glycoprotein [1] was determined as 4.35 ×10⁻⁶ cm/s; in the data set with P-glycoprotein [8] it was 5.25 ×10⁻⁶ cm/s; with P-glycoprotein [13], 4.08 ×10⁻⁶ cm/s. Further, the Papp B→A stood at 13.6 ×10⁻⁶ cm/s with P-glycoprotein [2] and 7.9 ×10⁻⁶ cm/s in the data set with P-glycoprotein [9]. The apparent permeability coefficient (Papp) in data set [3] was 13.6 ×10⁻⁶ cm/s; in data set [7] it was “tde”; in [10], “tde”. In addition, the apparent permeability from basolateral to apical (Papp B→A) at 50 µM in the data set with P-glycoprotein [4] was 11.9 ×10⁻⁶ cm/s; with P-glycoprotein [5], 12.5 ×10⁻⁶ cm/s; with P-glycoprotein [11], 10.5 ×10⁻⁶ cm/s. For the same compound, the Ratio in [6] was found to be 2. Moreover, the Km with P-glycoprotein [12] is 64.6 µg/mL. Moreover, the apparent permeability coefficient (Papp) at 350 ug/ml in data set [14] was determined as 7.9 ×10⁻⁶ cm/s. The same compound displayed a Cmax in data set [15] of 5000 ng/mL.
